Measured values: PubChem BioAssay (NCI)
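Briefly, cells in 96-well plates were exposed to five compound concentrations for 48 h, and endpoints were estimated by linear interpolation. Definition used: TGI = concentration required for complete inhibition of growth.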

Legend:
Assay in all cases: NCI-60 cell line screen, 48 h
[1] = system: NCI-H460 lung
[2] = system: NCI-H23 lung
[3] = system: OVCAR-5 ovarian
[4] = system: MALME-3M melanoma
[5] = system: SF-268 CNS
[6] = system: MDA-N
[7] = system: SW-620 colon
[8] = system: RPMI-8226 leukemia
[9] = system: T-47D breast
[10] = system: M14 melanoma
[11] = system: SF-295 CNS
[12] = system: HS 578T breast
[13] = system: EKVX NSCLC
[14] = system: SK-MEL-2 melanoma
[15] = system: SK-OV-3 ovarian
[16] = system: PC-3 prostate
[17] = system: HCC-2998 colon
[18] = system: HT29 colon
[19] = system: UO-31 renal
[20] = system: HCT-15 colon
[21] = system: SR leukemia
[22] = system: SF-539 CNS
[23] = system: IGROV1 ovarian
[24] = system: KM12 colon
[25] = system: HL-60(TB) leukemia
[26] = system: SNB-75 CNS
[27] = system: 786-0 renal
[28] = system: MDA-MB-231 breast
[29] = system: LOX IMVI melanoma
[30] = system: NCI-H226 lung
[31] = system: OVCAR-3 ovarian
[32] = system: SK-MEL-28 melanoma
[33] = system: SK-MEL-5 melanoma
[34] = system: CAKI-1 renal
[35] = system: A549 NSCLC
[36] = system: COLO 205 colon
[37] = system: HOP-92 NSCLC
[38] = system: ACHN renal
[39] = system: RXF 393 renal
[40] = system: U251 CNS
[41] = system: MDA-MB-435
[42] = system: K-562 leukemia
[43] = system: SN12C renal
[44] = system: UACC-257 melanoma
[45] = system: MCF7 breast
[46] = system: HOP-62 NSCLC
[47] = system: SNB-19 CNS
[48] = system: TK-10 renal
[49] = system: NCI/ADR-RES ovarian
[50] = system: OVCAR-4 ovarian
[51] = system: HCT-116 colon
[52] = system: BT-549 breast
[53] = system: NCI-H522 lung
[54] = system: CCRF-CEM leukemia
[55] = system: DU-145 prostate
[56] = system: OVCAR-8 ovarian
[57] = system: MOLT-4 leukemia
[58] = system: A498 renal
[59] = system: UACC-62 melanoma

SMILES: Brc1ccc2[nH]cc(-c3csc(-c4ccccn4)n3)c2c1
- TGI [1]: 22.4 µM
- TGI [2]: > 100 µM
- TGI [3]: > 100 µM
- TGI [4]: 65.2 µM
- TGI [5]: > 59.7 µM
- TGI [6]: > 100 µM
- TGI [7]: 98.6 µM
- TGI [8]: 63.7 µM
- TGI [9]: > 100 µM
- TGI [10]: > 100 µM
- TGI [11]: > 26.4 µM
- TGI [12]: > 100 µM
- TGI [13]: 48.2 µM
- TGI [14]: > 100 µM
- TGI [15]: > 100 µM
- TGI [16]: 51.7 µM
- TGI [17]: 31 µM
- TGI [18]: 38.7 µM
- TGI [19]: > 100 µM
- TGI [20]: > 100 µM
- TGI [21]: 43.6 µM
- TGI [22]: > 100 µM
- TGI [23]: > 88.8 µM
- TGI [24]: > 100 µM
- TGI [25]: > 100 µM
- TGI [26]: 36.4 µM
- TGI [27]: 20.3 µM
- TGI [28]: > 75.4 µM
- TGI [29]: 33.2 µM
- TGI [30]: 34.8 µM
- TGI [31]: > 38 µM
- TGI [32]: > 100 µM
- TGI [33]: 55.9 µM
- TGI [34]: > 94.9 µM
- TGI [35]: > 70.3 µM
- TGI [36]: > 56.3 µM
- TGI [37]: > 95.8 µM
- TGI [38]: 23.7 µM
- TGI [39]: 18.7 µM
- TGI [40]: 36.4 µM
- TGI [41]: > 100 µM
- TGI [42]: > 100 µM
- TGI [43]: 30.7 µM
- TGI [44]: > 85.2 µM
- TGI [45]: > 100 µM
- TGI [46]: > 45.5 µM
- TGI [47]: > 100 µM
- TGI [48]: > 100 µM
- TGI [49]: > 100 µM
- TGI [50]: > 92.8 µM
- TGI [51]: 50.9 µM
- TGI [52]: > 100 µM
- TGI [53]: > 100 µM
- TGI [54]: > 100 µM
- TGI [55]: > 86.5 µM
- TGI [56]: > 100 µM
- TGI [57]: > 53.6 µM
- TGI [58]: 12.4 µM

SMILES: N#Cc1c(N2CCCC2)nsc1NCc1ccccc1
- TGI [1]: > 100 µM
- TGI [2]: > 100 µM
- TGI [3]: > 100 µM
- TGI [4]: > 100 µM
- TGI [5]: > 100 µM
- TGI [6]: > 100 µM
- TGI [7]: > 100 µM
- TGI [8]: > 100 µM
- TGI [9]: > 100 µM
- TGI [10]: > 100 µM
- TGI [11]: > 100 µM
- TGI [59]: > 100 µM
- TGI [12]: > 100 µM
- TGI [13]: > 100 µM
- TGI [14]: > 100 µM
- TGI [15]: > 100 µM
- TGI [16]: > 100 µM
- TGI [17]: > 100 µM
- TGI [18]: > 100 µM
- TGI [19]: 65 µM
- TGI [20]: > 100 µM
- TGI [21]: > 100 µM
- TGI [22]: > 100 µM
- TGI [23]: > 100 µM
- TGI [24]: > 100 µM
- TGI [25]: > 100 µM
- TGI [26]: > 100 µM
- TGI [27]: > 100 µM
- TGI [28]: > 100 µM
- TGI [29]: > 100 µM
- TGI [30]: > 100 µM
- TGI [31]: > 100 µM
- TGI [32]: > 100 µM
- TGI [33]: > 100 µM
- TGI [34]: > 100 µM
- TGI [35]: > 100 µM
- TGI [36]: > 100 µM
- TGI [37]: > 100 µM
- TGI [38]: > 100 µM
- TGI [39]: > 100 µM
- TGI [40]: > 100 µM
- TGI [41]: > 100 µM
- TGI [42]: > 100 µM
- TGI [43]: > 100 µM
- TGI [44]: > 100 µM
- TGI [45]: > 100 µM
- TGI [46]: > 100 µM
- TGI [47]: > 100 µM
- TGI [48]: > 100 µM
- TGI [49]: > 100 µM
- TGI [50]: > 100 µM
- TGI [51]: > 100 µM
- TGI [52]: > 100 µM
- TGI [53]: > 100 µM
- TGI [54]: > 100 µM
- TGI [55]: > 100 µM
- TGI [56]: > 100 µM
- TGI [57]: > 100 µM
- TGI [58]: > 100 µM
